This data set can be described thus: gradient 5% acetonitrile 3 min, to 50% in 2 min, to 85% in 15 min, held 3 min, 100 µL/min. As to conditions: column: Zorbax Extend-C18 2.1 x 50 mm; eluents: water / acetonitrile, 0.1% formic acid. The essentials:
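The mobile phases were water and acetonitrile, each with 0.1% formic acid, pumped at 100 μL/min through a Zorbax Extend-C18 column (2.1 × 50 mm, 1.8 μm). Pure standards were injected as mixtures of ~100 molecules and detected by a quadrupole time-of-flight mass spectrometer in positive and negative ionization mode. Retention time came from computationally picked adduct peaks, each inspected by hand.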
`Cc1nn(-c2ccc(N3CCOCC3)nn2)c(C)c1CCC(=O)Nc1ccccc1F` registered an RP-LC retention time of 709 s. With `COc1cccc(CNc2ncccc2-c2nnc(-c3ccccc3)o2)c1`, the RP-LC retention time came out at 1170 s. With `CN(CCc1ccccn1)C(=O)CCC1CCCN(c2cc(NC3CC3)ncn2)C1` (stereo not drawn) the figure was 561 s; with `CCc1ccc(-c2nc(-c3ccc4nnc(C)n4c3)no2)cc1`, 1080 s; with `Cc1ccnc(N2CCC(C(=O)NCCc3ccco3)CC2)n1`, 640 s. Turning to `COc1cc(C(=O)NC(C)C(=O)Nc2nc3ccccc3[nH]2)cc(OC)c1OC` (stereo not drawn), the RP-LC retention time amounted to 767 s. `CCS(=O)(=O)Nc1ccc(-c2noc(COc3ccc(F)cc3)n2)cc1` showed an RP-LC retention time of 931 s. With `CSc1ncccc1C(=O)N(Cc1cccs1)Cc1cccn1C`, the RP-LC retention time was found to be 904 s. The same measure for `CCCn1cc(C(=O)Nc2ccc(N3CCOCC3)cc2)c2cccnc21`: 895 s; for `CC1=NS(=O)(=O)N(C)C=C1C(=O)OCc1nc(-c2ccc(OC(F)(F)F)cc2)no1`: 1100 s; for `COC(=O)c1c(NCCc2ccc(Cl)cc2)c2cc(F)ccc2[nH]c1=O`: 857 s. The same measure for `COC(=O)c1ccccc1Nc1c(-c2ccc(SC)cc2)nc2cnccn12`: 1070 s; for `Cc1ccccc1NC(=O)N(C)Cc1ccsc1`: 866 s; for `Cc1ccc(CS(=O)(=O)N2CCC(c3cc(N)on3)CC2)cc1C`: 826 s.

With `CCCS(=O)(=O)N1CCC[C@H]1c1nc(-c2ccc(F)cc2)n[nH]1`, the RP-LC retention time amounted to 740 s. The same measure for `CN(C)C(=O)c1cc2cnc(Nc3ccc(N4CCNCC4)cn3)nc2n1C1CCCC1`: 630 s; for `CC(C)Cn1ccc2c(cc(C(=O)Nc3ccc(C(C)C)cc3)n2C)c1=O`: 1030 s; for `COc1ccc(OC)c(CNC(=O)C2CCN(c3cnc4nccnc4c3)CC2)c1`: 680 s. The same measure for `COc1ccc2c(c1)CCc1c-2n[nH]c1C(=O)N1CCN(c2cc(=O)n(C)c(=O)n2C)CC1`: 659 s; for `O=C(C1=NN(c2ccc(F)cc2)c2ccc(F)cc2S1(=O)=O)N1CCOCC1`: 829 s. The same measure for `O=C(c1ccc(Cl)nc1)N1CCCC1c1nc(-c2cccc(C(F)(F)F)c2)no1` (stereo not drawn): 1070 s. Consider `O=C(Cc1ccc(NC(=O)C2CCCC2)cc1)NCC(F)(F)F`, for which the RP-LC retention time amounted to 727 s. `Cc1ccc(-c2cc3n(n2)CCCN(C(=O)c2ccsc2)C3)cc1` gave an RP-LC retention time of 845 s. On to `O=C(c1nnc(-c2ccc(S(=O)(=O)N3CCCC3)cc2)o1)N1CCCCCC1`, for which the RP-LC retention time came to 902 s. The same measure for `Cc1ccccc1-c1noc(CN2C(=O)COc3ccc(Cl)cc32)n1`: 1120 s; for `CCC(CN(C)Cc1ccccc1)NS(=O)(=O)c1ccc2[nH]c(=O)ccc2c1` (stereo not drawn): 600 s. The same measure for `COC(=O)C1=C(C)N(C2CCCC2)C(=O)C1(NC(=O)CCc1ccccc1)C(F)(F)F` (stereo not drawn): 1080 s. `Cc1cccc(NC(=O)CN2C(=O)C3CCCN3C(=O)c3ccc(F)cc32)c1C` (stereo not drawn) gave an RP-LC retention time of 731 s. The same measure for `O=C(CSc1ncn[nH]1)Nc1ccc2c(c1)OCCO2`: 591 s; for `O=c1c2cc(-c3ccc4c(c3)OCO4)nn2ccn1Cc1nc(-c2cccc(F)c2)no1`: 1010 s. In turn, `Cc1cc(N(C)C)n2ncc(-c3ccc(Cl)cc3)c2n1` displayed an RP-LC retention time of 889 s. With `COCCn1nc2n(c1=O)CCC1(CC2)CCN(C(=O)C2CCOC2)CC1` (stereo not drawn) the figure was 587 s. With `COCCNC(=O)CCCN1C(=O)c2ccccc2Sc2ncccc21` the figure was 634 s.

The values above are taken from the METLIN SMRT retention time set (Domingo-Almenara et al. 2019).
